For experiment [1], the target named is T1, Cholecystokinin receptor type A (Rattus norvegicus, UniProt P30551).
T1 sequence (P30551 whole entry): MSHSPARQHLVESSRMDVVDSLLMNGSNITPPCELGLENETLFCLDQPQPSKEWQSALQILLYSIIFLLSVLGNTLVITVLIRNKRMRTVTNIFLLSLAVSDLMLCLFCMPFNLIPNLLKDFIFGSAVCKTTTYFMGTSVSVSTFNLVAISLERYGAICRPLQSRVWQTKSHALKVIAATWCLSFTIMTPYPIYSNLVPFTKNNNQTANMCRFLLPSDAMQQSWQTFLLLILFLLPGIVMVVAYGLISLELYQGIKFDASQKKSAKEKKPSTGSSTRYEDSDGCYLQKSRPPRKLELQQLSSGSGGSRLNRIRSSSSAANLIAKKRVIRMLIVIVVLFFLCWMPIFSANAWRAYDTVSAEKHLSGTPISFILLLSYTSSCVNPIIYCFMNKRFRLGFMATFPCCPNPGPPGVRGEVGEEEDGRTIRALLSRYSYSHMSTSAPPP
The experiment in a line: Inhibition of ligand binding to Cholecystokinin type A receptor from rat pancreatic tissue.

The target in experiment [2] is Gastrin/cholecystokinin type B receptor (Cavia porcellus). As to the kind of experiment: Inhibition of ligand binding to Cholecystokinin type B receptor from guinea pig cortical membrane.

Structures are written as SMILES.

`CCCN1C(=O)[C@H](NC(=O)Nc2cccc(C)c2)N=C([C@H]2CCCCN2)c2ccccc21`: the IC50 (in general, the midpoint of a concentration-inhibition curve) in experiment [1] turned out to be 3000 nM.
The compound `Cc1cccc(NC(=O)NC2N=C(c3ccccn3)c3ccccc3N(C)C2=O)c1` (configuration not stated) yielded an IC50 in experiment [2] of 66 nM.
`CN1C(=O)[C@H](NC(=O)Nc2ccc3c(c2)CCC3)N=C([C@H]2CCC(C)(C)CCN2)c2ccccc21` yielded an IC50 in experiment [1] of 6490 nM.
Same read-out and setting: under `Cc1cccc(NC(=O)N[C@@H]2N=C([C@H]3CCC(C)(C)CCN3)c3ccccc3N(C)C2=O)c1` stands 1390 nM; under `CCCN1C(=O)[C@H](NC(=O)Nc2cccc(C)c2)N=C([C@H]2CCC(C)(C)CCN2)c2ccccc21`, 1510 nM.
`CCN(CC)C(=O)CN1C(=O)[C@H](NC(=O)Nc2cccc(C)c2)N=C(c2cccc[n+]2C)c2ccccc21` registered an IC50 in experiment [1] of 1750 nM.
On the same count and under the same terms, the result for `CCCN1C(=O)[C@H](NC(=O)Nc2cccc(C)c2)N=C([C@H]2CCC(C)(C)CCN2C)c2ccccc21` reads 3540 nM.
Compound `CCN(CC)C(=O)CN1C(=O)C(NC(=O)Nc2cccc(C)c2)N=C(c2ccccn2)c2ccccc21` (configuration not stated) yielded an IC50 in experiment [2] of 0.56 nM.
Compound `CCCN1C(=O)[C@H](NC(=O)Nc2ccc3c(c2)CCC3)N=C([C@H]2CC(C)(C)CCN2)c2ccccc21` registered an IC50 in experiment [1] of 4020 nM.
As for `CCCN1C(=O)[C@H](NC(=O)Nc2cccc(C)c2)N=C([C@H]2CCCCN2C)c2ccccc21`, the half-maximal inhibitory concentration (IC50) in experiment [1] was 2090 nM.
As for `CCCN1C(=O)[C@H](NC(=O)Nc2cccc(C)c2)N=C([C@H]2CC(C)(C)CCN2)c2ccccc21`, in experiment [1], the IC50 was found to be 3090 nM.
Still for that read-out and setting: the result for `CCCN1C(=O)[C@H](NC(=O)Nc2cccc(C)c2)N=C([C@@H]2CCCCN2)c2ccccc21` reads 3000 nM.

The values are drawn from ChEMBL document CHEMBL1130105 (J Med Chem, 1997).
